# Source: article PMC6028453, “BrlR from Pseudomonas aeruginosa is a receptor for both cyclic di-GMP and pyocyanin” (Nature Communications, 2018)
# What was measured:
# [1] = molecular target: T1, BrlR mutant R31A (Pseudomonas aeruginosa, UniProt Q9HUT5, R31A); assay: FP binding assay, BrlR R31A
# T1 construct: His6-SUMO (N, cleaved yes); made in house; host or cells: E. coli BL21 DE3
# Description: (§1) F-c-di-GMP and F-c-di-AMP both contain a fluorophore at one of the 2′-ribose hydroxyls of c-di-GMP and c-di-AMP, respectively (Fig. 2f). To measure the binding of c-di-GMP and c-di-AMP to BrlR variants, 1 nM F-c-di-GMP or F-c-di-AMP was incubated with increasing amounts of indicated BrlR WT, BrlR mutation, or BrlR-C in reaction buffer (25 mM HEPES, 100 mM NaCl, pH 7.5) at 25 °C for 20 min. 1 nM fluorescein was incubated with BrlR WT in the same reaction buffer at 25 °C. FP measurements were conducted on a Synergy 4 Microplate Reader (BioTek) at 25 °C. All experiments were performed in triplicate. The curves were fitted to deduce binding affinities by GraphPad Prism 5.
# (§2) BrlR–c-di-GMPs interactions in two separate c-di-GMP binding sites
# (§3) In the first binding site, c-di-GMP is half accommodated by the antiparallel β-sheet and two residues (M1 and D35). In detail, the backbone amide protons of the first M1 residue form a hydrogen bond (H-bond) with the phosphate oxygen atom of c-di-GMP, and the side chain of R31 forms two H-bonds with the Gua1 base. The residue D35 also forms an H-bond with the Gua1 base. The aromatic ring of Y40 interacts with the Gua1 base through a hydrophobic π-π interaction. In addition, the hydroxyl group of the Y270 side chain from another subunit interacts with the phosphate 2 of c-di-GMP via an H-bond (Fig. 2d). […]
# [2] = molecular target: T2, BrlR mutant Y270A (Pseudomonas aeruginosa, UniProt Q9HUT5, Y270A); assay: FP binding assay, BrlR Y270A
# T2 construct: His6-SUMO (N, cleaved yes); made in house; host or cells: E. coli BL21 DE3
# T2 sequence (Q9HUT5 whole entry Y270A): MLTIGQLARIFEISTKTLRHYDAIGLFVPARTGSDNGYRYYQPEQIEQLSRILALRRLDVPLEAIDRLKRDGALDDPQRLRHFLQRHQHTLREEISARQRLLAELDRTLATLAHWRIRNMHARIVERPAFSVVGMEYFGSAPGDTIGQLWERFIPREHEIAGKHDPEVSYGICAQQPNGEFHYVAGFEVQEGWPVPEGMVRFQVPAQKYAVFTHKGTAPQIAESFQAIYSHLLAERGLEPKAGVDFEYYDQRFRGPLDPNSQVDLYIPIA
# Description: as §1, §2, §3
# [3] = molecular target: T3, BrlR mutant D35A (Pseudomonas aeruginosa, UniProt Q9HUT5, D35A); assay: FP binding assay, BrlR D35A
# T3 construct: His6-SUMO (N, cleaved yes); made in house; host or cells: E. coli BL21 DE3
# T3 sequence (Q9HUT5 whole entry D35A): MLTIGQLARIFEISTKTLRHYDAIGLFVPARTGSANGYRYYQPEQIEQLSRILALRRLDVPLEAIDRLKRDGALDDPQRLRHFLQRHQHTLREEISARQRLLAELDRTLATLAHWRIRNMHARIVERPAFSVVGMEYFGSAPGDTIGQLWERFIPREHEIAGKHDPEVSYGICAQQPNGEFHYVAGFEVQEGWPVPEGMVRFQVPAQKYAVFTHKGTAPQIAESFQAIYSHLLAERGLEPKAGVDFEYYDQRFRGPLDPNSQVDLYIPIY
# Description: as §1, §2, §3
# [4] = molecular target: T4, C2E mut1 DNA binding (Pseudomonas aeruginosa, UniProt Q9HUT5, D35A/R31A/Y270A/Y40A); assay: EMSA, C2E mut1 with PbrlR DNA; assay type: biochemical
# T4 construct: His6-SUMO (N, cleaved yes); made in house; host or cells: E. coli BL21 DE3
# T4 sequence (Q9HUT5 whole entry R31A/D35A/Y40A/Y270A): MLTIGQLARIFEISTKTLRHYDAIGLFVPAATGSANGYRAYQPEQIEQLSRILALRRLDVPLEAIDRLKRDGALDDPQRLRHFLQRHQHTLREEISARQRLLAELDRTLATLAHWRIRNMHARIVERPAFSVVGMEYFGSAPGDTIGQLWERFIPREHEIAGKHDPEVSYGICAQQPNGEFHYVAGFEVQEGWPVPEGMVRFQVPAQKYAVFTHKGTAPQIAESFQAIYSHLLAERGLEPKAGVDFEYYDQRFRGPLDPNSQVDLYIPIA
# Description: (§4) A 6-carboxy-fluorescein (FAM)-labeled 36-bp brlR promoter DNA (PbrlR) or 80-bp mexA/mexE promoter DNA (PmexA/PmexE) probes (~0.375 pmol), BrlR protein and varying amounts of inducers were incubated in binding buffer (10 mM Tris HCl [pH 7.4], 50 mM KCl, 1 mM DTT, […] and 5 ng/mL poly [dI-dC]) for 60 min at 25 °C. Finally, glycerol was added to a concentration of 6.5%. The samples were subjected to a 5% polyacrylamide gel electrophoresis and run in 0.5 × Tris-borate-EDTA buffer at 80 V for 1 h at room temperature. Imaging and data analyses were performed using a Typhoon Scanner (GE Healthcare) and Imagequant software. The probes used are listed in Supplementary Table 1.
# [5] = molecular target: T5, BrlR Y40A DNA binding (Pseudomonas aeruginosa, UniProt Q9HUT5, Y40A); assay: EMSA, BrlR Y40A; assay type: biochemical
# T5 construct: His6-SUMO (N, cleaved yes); made in house; host or cells: E. coli BL21 DE3
# T5 sequence (Q9HUT5 whole entry Y40A): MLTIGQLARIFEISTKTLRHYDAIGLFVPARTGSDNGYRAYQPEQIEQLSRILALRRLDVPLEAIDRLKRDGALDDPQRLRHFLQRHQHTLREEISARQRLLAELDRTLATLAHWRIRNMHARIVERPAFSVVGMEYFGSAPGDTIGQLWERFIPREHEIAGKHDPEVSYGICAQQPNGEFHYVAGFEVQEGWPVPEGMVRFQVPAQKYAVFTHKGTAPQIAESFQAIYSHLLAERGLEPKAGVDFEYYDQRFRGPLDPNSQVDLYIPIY
# Description: as §4
# [6] = molecular target: T6, BrlR R67A DNA binding (Pseudomonas aeruginosa, UniProt Q9HUT5, R67A); assay: EMSA, BrlR R67A; assay type: biochemical
# T6 construct: His6-SUMO (N, cleaved yes); made in house; host or cells: E. coli BL21 DE3
# T6 sequence (Q9HUT5 whole entry R67A): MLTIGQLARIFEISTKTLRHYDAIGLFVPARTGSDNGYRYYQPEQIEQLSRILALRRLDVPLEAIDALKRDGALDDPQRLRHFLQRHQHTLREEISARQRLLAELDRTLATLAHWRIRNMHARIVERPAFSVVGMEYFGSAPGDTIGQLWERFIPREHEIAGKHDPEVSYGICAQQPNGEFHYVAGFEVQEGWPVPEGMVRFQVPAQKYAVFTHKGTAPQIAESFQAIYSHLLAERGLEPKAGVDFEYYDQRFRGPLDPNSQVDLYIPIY
# Description: as §4
# [7] = test system: brlR promoter activity (wild-type BrlR); assay: β-galactosidase assay, PbrlR-brlR-lacZ reporter, wild-type BrlR; assay type: cell-based, Pseudomonas aeruginosa; settings: ΔbrlR strain, pHERD20T-PA4843 vs pHERD20T
# Description: (§5) We also performed β-galactosidase activity assays using a PbrlR-brlR-lacZ reporter construct to investigate the transcriptional function of BrlR mutants in vivo. […] To confirm the effect of c-di-GMP in P. aeruginosa, we carried out real-time quantitative PCR analyses. Following a previous report, we introduced the diguanylate cyclase PA4843 into a WT P. aeruginosa strain carrying either pHERD20T-empty or pHERD20T-PA4843. The transcription level of brlR was analyzed using the brlR 5 F and brlR 3 R primers (Supplementary Table 1). The transcriptional level of brlR in pHERD20T-PA4843 strain is 4.5 ± 1.3-fold higher than that in the pHERD20T-empty strain (Fig. 4h).
# (§6) β-galactosidase activity was assayed with P. aeruginosa PA01 ΔbrlR strain carrying plasmid pME6522-borne transcriptional lacZ fusions. P. aeruginosa carrying the empty vector was used as the […]. The reporter plasmids are derivatives of the pME6522 plasmid in which multiple cloning sites were inserted before the LacZ with the promoter and coding regions of brlR with diverse mutations. These reporter plasmids were transformed into the reporter strain. Overnight cultures were diluted 20-fold with LB medium supplemented with appropriate antibiotics. […]
# [8] = test system: brlR promoter activity (C2E mut2); assay: β-galactosidase assay, C2E mut2; assay type: cell-based, Pseudomonas aeruginosa
# Description: as §5, §6
# [9] = test system: brlR promoter activity (C2E mut3); assay: β-galactosidase assay, C2E mut3; assay type: cell-based, Pseudomonas aeruginosa
# Description: as §5, §6
# T1 sequence (Q9HUT5 whole entry R31A): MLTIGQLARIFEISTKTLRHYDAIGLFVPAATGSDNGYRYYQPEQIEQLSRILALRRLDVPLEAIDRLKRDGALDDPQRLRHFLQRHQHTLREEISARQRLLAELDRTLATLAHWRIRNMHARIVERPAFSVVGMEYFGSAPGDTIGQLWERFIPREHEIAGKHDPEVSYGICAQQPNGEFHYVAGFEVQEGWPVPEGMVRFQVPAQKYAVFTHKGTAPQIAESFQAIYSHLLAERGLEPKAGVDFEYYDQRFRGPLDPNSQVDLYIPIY
smiles,measurement,setting,value
"Nc1nc2c(ncn2[C@@H]2O[C@@H]3COP(=O)(O)O[C@H]4[C@@H](O)[C@H](n5cnc6c(=O)[nH]c(N)nc65)O[C@@H]4COP(=O)(O)O[C@H]3[C@H]2O)c(=O)[nH]1 [c-di-GMP, cyclic diguanylate monophosphate]",Kd,[1],42.7 ± 5.4 µM
same,Kd,[2],40.8 ± 3.8 µM
same,Kd,[3],17.5 ± 0.9 µM
same,BrlR-DNA complex in the presence vs absence of c-di-GMP,[4],1.5 fold
same,DNA bound in the presence vs absence of c-di-GMP,[5],~ 1.1 fold
same,DNA bound in the presence vs absence of c-di-GMP,[6],~ 5.2 fold
same,increase at high vs low c-di-GMP concentration (β-galactosidase activity),[7],3.3 fold
same,increase at high vs low c-di-GMP concentration (β-galactosidase activity),[8],2.2 fold
same,response of β-galactosidase activity to increase in c-di-GMP concentration,[9],no response
